# From BindingDB's records for doi:10.1021/jm801211c (Intervet Innovation, 2009)
# Molecular target: Mu-type opioid receptor (Homo sapiens, UniProt P35372)
# Assay: Mu Opioid Receptor Binding Assay and Antagonist Functionality Assay
# Details: pH 7.4; 22 °C
# Protocol: In the binding assays, the results were expressed as percent inhibition of the control radioligand specific binding. The IC50 values (concentration causing a half maximal inhibition of control specific binding) were determined by non-linear regression analysis of the competition curves using Hill equation curve fitting. The inhibition constants (Ki) were calculated from the Cheng Prusoff equation. EC50/IC50 measures the antagonist activities on mu-agonist triggered luminescence in AequoScreen cells.
# Sequence of Mu-type opioid receptor (P35372 whole entry): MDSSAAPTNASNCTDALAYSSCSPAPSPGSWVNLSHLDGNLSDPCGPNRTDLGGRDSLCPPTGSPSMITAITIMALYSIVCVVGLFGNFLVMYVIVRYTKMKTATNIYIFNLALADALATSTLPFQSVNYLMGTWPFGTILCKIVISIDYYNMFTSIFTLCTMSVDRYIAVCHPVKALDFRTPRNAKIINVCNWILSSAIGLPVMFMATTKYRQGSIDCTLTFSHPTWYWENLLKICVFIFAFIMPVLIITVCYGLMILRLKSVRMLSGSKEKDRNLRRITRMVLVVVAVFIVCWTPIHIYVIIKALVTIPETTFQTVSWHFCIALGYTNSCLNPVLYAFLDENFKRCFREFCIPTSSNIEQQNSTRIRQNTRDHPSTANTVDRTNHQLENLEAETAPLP
smiles,measurement,value
"CC(C)N[C@@H]1CCn2c(=O)[nH]c3cccc(c32)[C@H]1O [(9R,10R)-9-hydroxy-10-(propan-2-ylamino)-1,3-diazatricyclo[6.4.1.0^{4,13}]trideca-4(13),5,7-trien-2-one]",EC50,> 1000 µM
"CC(C)N[C@H]1CCn2c(=O)[nH]c3cccc(c32)[C@@H]1O [(9S,10S)-9-hydroxy-10-(propan-2-ylamino)-1,3-diazatricyclo[6.4.1.0^{4,13}]trideca-4(13),5,7-trien-2-one]",EC50,140 µM
